Measurements published in US10053667B2, “Differentiation of human pluripotent stem cells to multipotent neural crest cells” (UNIVERSITY OF GEORGIA RESEARCH FOUNDATION, INC., priority 2010, dated 2018).
Entries after “also recorded” stand apart in the source; their conditions may differ.

B1: BMP4: bone morphogenic protein added to SB media (R&D Systems) (protein, UniProt P12644 293-408, looked up)
Bone morphogenetic protein 4: SPKHHSQRARKKNKNCRRHSLYVDFSDVGWNDWIVAPPGYQAFYCHGDCPFPLADHLNSTNHAIVQTLVNSVNSSIPKACCVPTELSAISMLYLDEYDKVVLKNYQEMVVEGCGCR
B2: Dickkopf: a Wnt antagonist (R&D Systems) (protein, UniProt O94907 32-266, looked up)
Dickkopf-related protein 1: TLNSVLNSNAIKNLPPPLGGAAGHPGSAVSAAPGILYPGGNKYQTIDNYQPYPCAEDEECGTDEYCASPTRGGDAGVQICLACRKRRKRCMRHAMCCPGNYCKNGICVSSDQNHFRGEIEETITESFGNDHSTLDGYSRRTTLSSKMYHTKGQEGSVCLRSSDCASGLCCARHFWSKICKPVLKEGQVCTKHRRKGSHGLEIFQRCYCGEGLSCRIQKDHHQASNSSRLHTCQRH
B3: Noggin: BMP inhibitor protein (R&D systems) (protein, UniProt Q13253 28-232, looked up)
Noggin: QHYLHIRPAPSDNLPLVDLIEHPDPIFDPKEKDLNETLLRSLLGGHYDPGFMATSPPEDRPGGGGGAAGGAEDLAELDQLLRQRPSGAMPSEIKGLEFSEGLAQGKKQRLSKKLRRKLQMWLWSQTFCPVLYAWNDLGSRFWPRYVKVGSCFSKRSCSVPEGMVCKPSKSVHLTVLRWRCQRRGGQRCGWIPIQYPIISECKCSC
B4: Wnt3a: recombinant Wnt protein, Wnt signaling promoter (protein, UniProt P56704 19-352, looked up)
Protein Wnt-3a: SYPIWWSLAVGPQYSSLGSQPILCASIPGLVPKQLRFCRNYVEIMPSVAEGIKIGIQECQHQFRGRRWNCTTVHDSLAIFGPVLDKATRESAFVHAIASAGVAFAVTRSCAEGTAAICGCSSRHQGSPGKGWKWGGCSEDIEFGGMVSREFADARENRPDARSAMNRHNNEAGRQAIASHMHLKCKCHGLSGSCEVKTCWWSQPDFRAIGDFLKDKYDSASEMVVEKHRESRGWVETLRPRYTYFKVPTERDLVYYEASPNFCEPNPETGSFGTRDRTCNVSSHGIDGCDLLCCGRGHNARAERRREKCRCVFHWCCYVSCQECTRVYDVHTCK

Columns and labels:
Format in all cases: cell-based, human
WA09 hESCs [1] = test: hESC differentiation, immunostaining for neural crest markers (p75, Ap2, Hnk1) and NPC markers (Pax6, Sox2)
Protocol: NPC differentiation was performed as described (18). […] Media was replaced every day. Additional experiments were performed by adding 25 ng/ml Wnt3a, 500 ng/ml Noggin or 5-50 ng/ml of BMP4 (R&D Systems) to SB media. For peripheral neuron differentiation, neural crest cells were plated in poly-L-ornithine/laminin or Geltrex-coated 4-well chamber slides. The following day, SB media was switched to DMEM/F12 N2 supplemented media with BDNF (10 ng/ml), GDNF (10 ng/ml), NGF (10 ng/ml), neurotrophin-3 (10 ng/ml), ascorbic acid (200 μM) and dbcAMP (0.5 mM). Cells were grown for 10-14 days and assayed by immunocytochemisty. Neural crest cells were cultured in media containing 10% fetal bovine serum and passed every 4-5 days. Osteocyte, adipocyte and chondrocyte differentiation was performed according to manufacturer directions using StemPro Osteogenesis Kit, StemPro Chondrogenesis Differentiation Kit, StemPro Adipogenesis Differentiation Kit (Invitrogen), respectively.
Cells were fixed in 4% paraformaldehyde in phosphate buffered saline (PBS) and stained with primary antibodies listed in attached Table 1 (below). […] DNA was visualized by staining with DAPI. For flow cytometry, one million live cells dissociated with Accutase were re-suspended in PBS and incubated for 30 minutes on ice with primary conjugated antibodies, listed in Table 1. […] Cells were analyzed using the CyAN ADP (Beckman Coulter) and FlowJo software.

WA09 hESCs [2] = test: hESC differentiation to neural crest-like versus neural progenitor cells, flow cytometry for p75 and Hnk1; details: for generation of Hnk1+ p75+ (Hnk1bright p75bright) neural crest-like population: WA09 hESCs treated 15 days, FIG. 2A, factors added to or omitted from SB 431542/BIO media; for proportion of Hnk1bright p75bright cells: dose-response, added to cultures treated with SB 431542 and Noggin, BIO 0-2 µM, Wnt3a 0-50 ng/ml
Protocol: NPC differentiation was performed as described (18). Briefly, cells were plated on Geltrex-coated plates in defined media without Activin A, supplemented with 20 μM SB 431542 (Tocris) and 500 ng/ml Noggin (R&D systems) for 11 days with or without 2 μM of (2′Z,3′E)-6-Bromoindirubin-3′-oxime (BIO) (GSK3 Inhibitor IX, Calbiochem), or 15 ng/ml Dickkopf (R&D Systems). For direct neural crest differentiation, cells were plated at a density of 1×10^5 cells/cm^2 in defined media lacking Activin A, supplemented with 2 μM BIO and 20 μM SB 431542 (SB media). Media was replaced every day. Additional experiments were performed by adding 25 ng/ml Wnt3a, 500 ng/ml Noggin or 5-50 ng/ml of BMP4 (R&D Systems) to SB media. For peripheral neuron differentiation, neural crest cells were plated in poly-L-ornithine/laminin or Geltrex-coated 4-well chamber slides. The following day, SB media was switched to DMEM/F12 N2 supplemented media with BDNF (10 ng/ml), GDNF (10 ng/ml), NGF (10 ng/ml), neurotrophin-3 (10 ng/ml), ascorbic acid (200 μM) and dbcAMP (0.5 mM). Cells were grown for 10-14 days and assayed by immunocytochemisty. Neural crest cells were cultured in media containing 10% fetal bovine serum and passed every 4-5 days. Osteocyte, adipocyte and chondrocyte differentiation was performed according to manufacturer directions using StemPro Osteogenesis Kit, StemPro Chondrogenesis Differentiation Kit, StemPro Adipogenesis Differentiation Kit (Invitrogen), respectively.
Cells were fixed in 4% paraformaldehyde in phosphate buffered saline (PBS) and stained with primary antibodies listed in attached Table 1 (below). Secondary antibodies were Alexa Fluor 488 and Alexa Fluor 555-conjugated (Invitrogen). DNA was visualized by staining with DAPI. For flow cytometry, one million live cells dissociated with Accutase were re-suspended in PBS and incubated for 30 minutes on ice with primary conjugated antibodies, listed in Table 1. Unconjugated p75 (neurotrophin receptor) and Hnk1 antibodies were detected with Alexa Fluor 633 and Alexa Fluor 488-conjugated secondary antibodies, respectively. Cells were analyzed using the CyAN ADP (Beckman Coulter) and FlowJo software.

β-catenin signaling = test: Top-Flash luciferase reporter assay for β-catenin activity in hESCs; details: hESC cultures; Top-Flash normalized to Fop-Flash
Protocol: Data is expressed as the fold-increase in luciferase activity over untreated cells after normalization to the Fop-Flash control. All assays were performed in triplicate and represented as +/−standard deviation. (B) Top-Flash activity in hESCs grown in defined media treated with Wnt3a, Dkk1, Wnt3a and Dkk1 or BIO. Experiments were performed in triplicate and represented as +/−standard deviation.

[3] = BIO added to SB 431542 and Noggin (Smad inhibition), 12 days

Molecule | generation of Hnk1+ p75+ (Hnk1bright p75bright) neural crest-like population (WA09 hESCs [2]) | proportion of Hnk1bright p75bright cells (WA09 hESCs [2]) | also measured
O=C1Nc2cc(Br)ccc2/C1=C1/Nc2ccccc2/C1=N\O [BIO, (2′Z,3′E)-6-Bromoindirubin-3′-oxime] | ineffective | increased the proportion of Hnk1^bright p75^bright cells in a dose-dependent manner | formation of Pax6+ cells (WA09 hESCs [1]; [3]): suppresses this; also recorded: severely inhibited the formation of Pax6^+ cells; percentage of p75+ cells (WA09 hESCs [1]; [3]): generates p75+ Pax6− neural crest-like cells; also recorded: markedly increasing the percentage of p75^+ cells; Sox2 expression (WA09 hESCs [1]; immunostaining, Smad signaling suppressed, range of BIO concentrations): dose-dependent response; activation of β-catenin-dependent luciferase reporter (canonical Wnt pathway) (β-catenin signaling): activates β-catenin signaling; also recorded: efficiently activates the canonical Wnt pathway
NC(=O)c1ccc(-c2nc(-c3ccc4c(c3)OCO4)c(-c3ccccn3)[nH]2)cc1 [SB 431542] | ineffective | – | –
B1 | suppressed the transition to an Hnk1^bright p75^bright state | – | –
B2 | – | – | p75bright cells in NPC cultures (WA09 hESCs [2]; NPC cultures obtained by treatment with Noggin and SB 431542): decreases the p75bright population; also recorded: severely reduced the low level of p75^bright cells
B3 | no major impact | – | –
B4 | can substitute for BIO | increased the proportion of Hnk1^bright p75^bright cells in a dose-dependent manner | –
